Laboratory results taken from patent publication US10443043B2, “Methods for making induced pluripotent stem cells” (NEW YORK UNIVERSITY, priority 2015, dated 2019).

Key:
Format in all cases: cell-based, mouse
reprogrammable MEFs = assay: Reprogramming of reprogrammable MEFs seeded in bulk, dox-independent colonies; settings: six days dox plus compound, then three days unsupplemented ESC media
Experimental: (§1) MEFs (Stadtfeld et al., 2008) and hepatoblasts (Gailhouste, 2012) were isolated from E14.5 embryos and GMPs, CMPs, MEP and LSK cells from either fetal liver or adult bone marrow (Akashi et al., 2000). All cell types used for reprogramming experiments were heterozygous for the inducible OKSM cassette, Rosa26-rtTA and the Oct4-GFP reporter. MEFs were expanded in reduced-oxygen conditions (4%) and used at passages 1 or 2. For reprogramming, cells were seeded in ESC media (DMEM with 15% FBS, L-glutamin, penicillin-streptomycin, nonessential amino acids, β-mercaptoethanol and 1000 U/ml LIF) at the desired density on a layer of irradiated feeder cells in presence of 1 mg/ml doxycycline. If applicable, L-Ascorbic acid (50 ng/μl), CHIR99021 (3 μM), TGFβ RI Kinase Inhibitor II (250 nM) and PD032590 (0.75 μM) were added. For GMPs and other blood progenitors, cultures were supplemented with Flt3-ligand (10 ng/ml) and SCF (20 ng/ml) for the first three days of reprogramming. Media was replenished every two days. To facilitate detection of Oct4-GFP expression in nascent colonies by fluorescent microscopy, reprogramming experiments were conducted in ESC media prepared with FluoroBrite DMEM (Life Technologies) when required. To score factor-independent colonies, dox (and other compounds) were removed by washing cultures twice with PBS and then maintaining them in ESC media for at least three days before colonies were counted by fluorescence microscopy or after alkaline phosphatase staining (Vector Laboratories). For quantification of Oct4-GFP expression, cultures were harvested by trypsin digestion, stained with DAPI or 7-AAD to exclude dead cells, acquired on a LSRII cytometer (BD Biosciences) and analyzed with FlowJo software (Tree Star Inc.).
The aforementioned compounds were tested using “reprogrammable MEFs” (Stadtfeld et al., 2010) engineered to express a doxycycline (dox)-inducible cassette encoding OKSM (Sommer et al., 2009) from a single defined genomic position and a GFP reporter from the endogenous Oct4 locus, whose expression is a hallmark of the pluripotent state. […]

GMPs [1] = assay: Bulk reprogramming of granulocyte-macrophage progenitors, dox-independent colonies
Experimental: as §1, with “For GMPs and other blood progenitors, cultures were supplemented with Flt3-ligand (10 ng/ml) and SCF (20 ng/ml) for the first three days of reprogramming. Media was replenished every two days. To facilitate detection of Oct4-GFP expression in nascent colonies by fluorescent microscopy, reprogramming experiments were conducted in ESC media prepared with FluoroBrite DMEM (Life Technologies) when required.” left out, “Inc.). […]” for “Inc.).”

[2] = tested on: SSEA1+ day 4 intermediates of reprogrammable MEFs; assay: Microarray and gene ontology analysis of day 4 reprogramming intermediates; settings: individual chemical
Excerpt: For the study of reprogramming intermediates, cultures of reprogrammable MEFs at day 4 in presence of OKSM expression were harvested and stained with biotinylated anti-SSEA1 antibody (MC-480, eBioscience), followed by APC-conjugated Streptavidin and anti-APC microbeads (Milteny Biotec). SSEA1^+ cells were enriched to ˜90% purity using MACS separation columns (Milteny Biotec) according to the manufacturer's instructions. Total RNA extracted with the miRNeasy mini kit (QIAGEN) with a RIN value >8 was subjected to transcriptional analyses with Affymetrix mouse genome 430 2.0 mRNA expression microarrays followed by bioinformatic analyses.
Pair-wise differential expression of MEFs, ESCs, GMPs and HEPs was assessed using a t-test and the resulting p-values were adjusted for multiple hypothesis testing as by the Benjamini & Hochberg procedure. […] FDR was assessed using the following methodology. […] Briefly, differential expression was assessed for every Affymetrix transcript probe between samples. As a preprocessing step, quantiles were normalized across samples and replicates, and subsequently fold changes were computed for each probe across the two replicates of each sample. The false discovery rate was computed by comparing the distribution of fold changes against the distribution of fold changes between replicates of the same sample.

GMPs [3] = assay: Single cell seeding of DsRed GMPs, Oct4-GFP expression; settings: flow cytometry, six days
Experimental: as §1, with “For GMPs and other blood progenitors, cultures were supplemented with Flt3-ligand (10 ng/ml) and SCF (20 ng/ml) for the first three days of reprogramming. Media was replenished every two days. To facilitate detection of Oct4-GFP expression in nascent colonies by fluorescent microscopy, reprogramming experiments were conducted in ESC media prepared with FluoroBrite DMEM (Life Technologies) when required.” left out, “Inc.). […]” for “Inc.).”

hepatoblasts = assay: Reprogramming of hepatoblasts, dox-independent colonies; settings: compound alone
Experimental: as §1, with “For GMPs and other blood progenitors, cultures were supplemented with Flt3-ligand (10 ng/ml) and SCF (20 ng/ml) for the first three days of reprogramming. Media was replenished every two days. To facilitate detection of Oct4-GFP expression in nascent colonies by fluorescent microscopy, reprogramming experiments were conducted in ESC media prepared with FluoroBrite DMEM (Life Technologies) when required.” left out, “Inc.). […]” for “Inc.).”

β-catenin = β-catenin immunofluorescence in GMPs; settings: purified GMPs cultured in CHIR, two days
Excerpt: FIG. 8A-8G. Related to FIG. 3. (8A) Fluorescence images of DsRed and Oct4-GFP expression in a representative GMP-derived colony derived upon culture in dox+CHIR for six days. (8B) Percentage of Oct4-GFP^+ cells in successfully reprogramming colonies after single cell seeding of GMPs in dox+CHIR or dox+3c, respectively (n=10 clonal colonies for each condition). (8C) AP staining of dox-independent colonies derived from LSK, GMP, MEP and CMPs in dox, dox+CHIR or dox+3c after six days of culture. (8D) Percentage of Oct4-GFP^+ cells in colonies obtained after single cell seeding of hepatoblasts and culture under the indicated conditions for six days (n=10 clonal colonies). (8E) IF images of β-catenin staining in cells derived from GMPs cultured under dox or dox+CHIR for two days. White arrows highlight representative cells positive for β-catenin expression. […]
Cells were fixed with paraformaldehyde, permeabilized and stained with primary antibodies against Oct4 (Santa Cruz, sc-8628), Nanog (Abcam, ab808992), Utf1 (Abcam, ab24273), Sall4 (Abcam, ab29112), Lin28 (Abcam, ab46020) and β-catenin (Sigma, C7207) followed by staining with appropriate secondary antibodies conjugated to either Alexa Fluor 555 or 647 (Invitrogen). Images were acquired with a Neo 5.5 cSMOS camera (Andor) and processed and analyzed using NIS-Elements and Adobe Photoshop. […]

O=C1O[C@H]([C@@H](O)CO)C(O)=C1O [AA, ascorbic acid]
dox-independent colonies, efficiency of input cells (reprogrammable MEFs): about 2% | effect on iPSC formation from blood progenitor cells (GMPs [1]): did not significantly enhance | aspect of the somatic program whose silencing is facilitated (GO analysis) [2]: mesodermal differentiation potential

Cc1c[nH]c(-c2cnc(NCCNc3ccc(C#N)cn3)nc2-c2ccc(Cl)cc2Cl)n1 [CHIR]
dox-independent colonies, efficiency of input cells (reprogrammable MEFs): 0.5% | average GFP labeling index (Oct4-GFP+ cells in colonies) (GMPs [3]): over 90% | effect on number of iPSC colonies from hepatoblasts (hepatoblasts): little beneficial effect | β-catenin protein level (β-catenin): rapidly accumulated

Cc1cccc(-c2[nH]ncc2-c2ccc3ncccc3n2)n1 [iAlk5]
dox-independent colonies, efficiency of input cells (reprogrammable MEFs): about 2% | aspect of the somatic program whose silencing is facilitated (GO analysis) [2]: collagen synthesis
